# US20260034094A1, “COMPOSITIONS AND METHODS FOR INDUCING FERROPTOSIS” (Kojin Therapeutics, Inc., priority 2022, published 2026)
# Several values for one entry are separate records, joined by “and”; a condition that tells them apart may be missing. Equal values may be shown once. Read-outs that look alike come from different tables or passages of the source.
# Tests used:
# [1] = target: human recombinant GCL (Homo sapiens (Human), UniProt P48506); experiment: GCL enzyme profiling assay (ADP-Glo luminescence); format: biochemical; details: human recombinant GCL 5 nM, 1 h preincubation with ATP
# Chain of human recombinant GCL (P48506 whole entry): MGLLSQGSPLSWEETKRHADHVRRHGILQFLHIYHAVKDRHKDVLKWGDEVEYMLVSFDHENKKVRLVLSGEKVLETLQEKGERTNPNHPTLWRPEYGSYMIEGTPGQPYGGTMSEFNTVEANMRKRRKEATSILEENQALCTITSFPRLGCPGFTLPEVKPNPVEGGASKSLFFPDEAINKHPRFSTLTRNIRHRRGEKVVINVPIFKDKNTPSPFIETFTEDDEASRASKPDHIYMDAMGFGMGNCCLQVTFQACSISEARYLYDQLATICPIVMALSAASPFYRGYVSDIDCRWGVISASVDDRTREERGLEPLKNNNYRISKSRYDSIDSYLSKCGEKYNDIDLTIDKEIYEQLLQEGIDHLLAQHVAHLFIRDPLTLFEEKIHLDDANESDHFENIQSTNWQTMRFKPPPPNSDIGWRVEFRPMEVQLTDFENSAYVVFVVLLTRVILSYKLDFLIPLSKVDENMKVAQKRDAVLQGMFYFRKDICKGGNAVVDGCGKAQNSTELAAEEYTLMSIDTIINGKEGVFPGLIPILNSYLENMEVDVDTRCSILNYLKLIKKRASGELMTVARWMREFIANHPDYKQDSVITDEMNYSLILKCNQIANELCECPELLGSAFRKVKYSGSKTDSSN
# Protocol: The GCL enzyme assay was run in 50 mM HEPES, pH 7.5, containing 150 mM NaCl, 30 mM MgCl2, 0.5 mM EDTA, 1 mM DTT, 0.1 mg/mL BSA, and 0.02% or in the present case 0.2% F-127 in a total assay volume of 10 μL or 10 mL. Compound in pure DMSO was stamped in assay plates (Greiner black 384-well) or appropriate containers using a D300e digital dispenser (TECAN) and the final DMSO concentration was normalized to 1%. A 5 mL, or in the present case, 5 μL mixture of human recombinant GCL (final concentration: 5 nM) and ATP (final concentration: 0.6 mM) was added and the solution was incubated at room temperature (22° C.) for 1 h. The GCL enzyme reaction was initiated by addition of a 5 μL mixture of mono g-glutamate or in the present example, monosodium glutamate (final concentration: 1 mM) and a-aminobutyrate or α-aminobutyrate (final concentration: 1.2 mM). The reaction was stopped after 1 h or in the present case, 2 h by addition of 5 mL, or in the present case, 5 μL ADP GLO Reagent (Promega). The resulting solution was incubated for 2 h at room temperature. This was then followed by addition of 5 mL, or in the present case, 5 μL ADP GLO Detection. After incubation at room temperature for 30 min, the plates were read on a plate reader (PheraStar) using a luminescence protocol to quantify the GCL enzyme activity from each reaction solution. The data was analyzed using a four-parameter logistic equation to calculate IC50.
# [2] = tested on: RKN cells; experiment: RKN cell profiling assay (cell viability, CellTiter-Glo); format: cell-based; details: 96 h, 96 h exposure, read-out: Cell Killing EC50
# How it was run: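 Cells seeded at 1,000/well in F-12 with 10% FBS, left to adhere 24 h, then compound-treated for 96 h at 0.5% final DMSO. Viability by CellTiter-Glo luminescence; EC50 from four-parameter logistic fit. Ferroptosis rescue runs included 1.5 μM ferrostatin-1 added at seeding.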
Structure (SMILES),IC50 ([1]; read-out: GCL IC50),"IC50 ([1]; read-out: GCL IC50 (mM), individual values in parentheses)",EC50 [2]
N=S(=O)(CC[C@H](N)C(=O)O)C[C@H](O)c1ccccc1 (some centres unmarked) [Compound 46],0.02 to 2 mM,–,≥ 1000 µM
CCC(CS(=N)(=O)CC[C@H](N)C(=O)O)c1ccccc1C(F)(F)F (some centres unmarked) [Compound 47],> 2 mM,–,≥ 1000 µM
"CC(C)(CCS(=N)(=O)CC[C@H](N)C(=O)O)c1ccccc1 (stereo partly drawn) [Compound 49, (2S)-2-amino-4-(3-methyl-3-phenylbutylsulfonimidoyl)butanoic acid]",0.02 to 2 mM,–,≥ 1000 µM
N=S(=O)(CCCc1ccccc1)CC[C@H](N)C(=O)O (some centres unmarked) [Compound 51],0.02 to 2 mM,–,≥ 1000 µM
N=S(=O)(CCCCc1ccccc1)CC[C@H](N)C(=O)O (some centres unmarked) [Compound 52],0.02 to 2 mM,–,≥ 1000 µM
N=S(=O)(CCC(c1ccccc1)C(F)(F)F)CC[C@H](N)C(=O)O (some centres unmarked) [Compound 53],0.02 to 2 mM,–,< 1000 µM
N=S(=O)(CC[C@H](N)C(=O)O)CC[C@H](O)c1ccccc1 (some centres unmarked) [Compound 54],0.02 to 2 mM,–,≥ 1000 µM
N=S(=O)(CCC(c1ccccc1)c1ccccc1)CC[C@H](N)C(=O)O (some centres unmarked) [Compound 55],0.02 to 2 mM,–,≥ 1000 µM
Cc1ccc(C(C)(C)CCS(=N)(=O)CC[C@H](N)C(=O)O)cc1 (some centres unmarked) [Compound 56],0.02 to 2 mM,–,≥ 1000 µM
Cc1cccc(C(C)(C)CCS(=N)(=O)CC[C@H](N)C(=O)O)c1 (some centres unmarked) [Compound 57],0.02 to 2 mM,–,≥ 1000 µM
CC(C)(CCS(=N)(=O)CC[C@H](N)C(=O)O)c1ccc(F)cc1 (some centres unmarked) [Compound 58],0.02 to 2 mM,–,≥ 1000 µM
CC(C)(CCS(=N)(=O)CC[C@H](N)C(=O)O)c1cnoc1 (some centres unmarked) [Compound 63],0.02 to 2 mM,–,≥ 1000 µM
CC(C)(CCS(=N)(=O)CC[C@H](N)C(=O)O)c1ccccc1Cl (some centres unmarked) [Compound 66],0.02 to 2 mM,–,≥ 1000 µM
"COC(=O)[C@@H](N)CCS(=N)(=O)CCc1cnccn1 (stereo partly drawn) [Compound 67, (2S)-methyl 2-amino-4-(2-(pyrazin-2-yl)ethylsulfonimidoyl)butanoate]",> 2 mM,–,≥ 1000 µM
"COC(=O)[C@@H](N)CCS(=N)(=O)CCc1ccccc1 (stereo partly drawn) [Compound 68, (2S)-methyl 2-amino-4-(2-phenylethylsulfonimidoyl)butanoate]",0.02 to 2 mM,–,≥ 1000 µM
"COC(=O)[C@@H](N)CCS(=N)(=O)CCc1nnn[nH]1 (stereo partly drawn) [Compound 69, (2S)-methyl 4-(2-(1H-tetrazol-5-yl)ethylsulfonimidoyl)-2-aminobutanoate]",> 2 mM,–,≥ 1000 µM
"COC(=O)[C@@H](N)CCS(=N)(=O)CCCc1ccccc1 (stereo partly drawn) [Compound 70, (2S)-methyl 2-amino-4-(3-phenylpropylsulfonimidoyl)butanoate]",0.02 to 2 mM,–,≥ 1000 µM

Structure (SMILES),IC50 ([1]; read-out: GCL IC50),"IC50 ([1]; read-out: GCL IC50 (mM), individual values in parentheses)",EC50 [2]
"COC(=O)[C@@H](N)CCS(=N)(=O)CCCC1CC1 (stereo partly drawn) [Compound 71, (2S)-methyl 2-amino-4-(3-cyclopropylpropylsulfonimidoyl)butanoate]",0.02 to 2 mM,–,≥ 1000 µM
"CCCCOC(=O)[C@@H](N)CCS(=N)(=O)CCC(C)(C)C (stereo partly drawn) [Compound 72, (2S)-butyl 2-amino-4-(3,3-dimethylbutylsulfonimidoyl)butanoate]",0.02 to 2 mM,–,< 1000 µM
"CCCCS(=N)(=O)CC[C@H](N)C(=O)OCc1oc(=O)oc1C (stereo partly drawn) [Compound 73, (2S)-(5-methyl-2-oxo-1,3-dioxol-4-yl)methyl 2-amino-4-(butylsulfonimidoyl) butanoate]",> 2 mM and 0.02 to 2 mM,–,≥ 1000 µM
COC(=O)[C@@H](N)CCS(=N)(=O)CCC1CCCC1 (some centres unmarked) [Compound 74],0.02 to 2 mM,–,< 1000 µM
COCCCS(=N)(=O)CC[C@H](N)C(=O)OC (some centres unmarked) [Compound 75],> 2 mM and 0.02 to 2 mM,2.35 mM and 0.594 mM,≥ 1000 µM
COCCCCS(=N)(=O)CC[C@H](N)C(=O)OC (some centres unmarked) [Compound 76],0.02 to 2 mM,–,≥ 1000 µM
CCCCOC(=O)[C@@H](N)CCS(=N)(=O)CCC1CCCC1 (some centres unmarked) [Compound 77],> 2 mM,–,< 1000 µM
CCCCOC(=O)[C@@H](N)CCS(=N)(=O)CCC1CCCCC1 (some centres unmarked) [Compound 78],0.02 to 2 mM,–,< 1000 µM
CCCCOC(=O)[C@@H](N)CCS(=N)(=O)CCCC(F)(F)F (some centres unmarked) [Compound 79],> 2 mM,–,< 1000 µM
N=S(=O)(CCCC(F)(F)F)CC[C@H](N)C(=O)OC1CCCCC1 (some centres unmarked) [Compound 80],0.02 to 2 mM,–,< 1000 µM
N=S(=O)(CCCC(F)(F)F)CC[C@H](N)C(=O)OCC1CCCCC1 (some centres unmarked) [Compound 81],0.02 to 2 mM,–,< 1000 µM
CCCC(C)OC(=O)[C@@H](N)CCS(=N)(=O)CCCC(F)(F)F (some centres unmarked) [Compound 82],0.02 to 2 mM,–,< 1000 µM
COCCOC(=O)[C@@H](N)CCS(=N)(=O)CCCC(F)(F)F (some centres unmarked) [Compound 83],0.02 to 2 mM,–,< 1000 µM
N=S(=O)(CCCC(F)(F)F)CC[C@H](N)C(=O)OC1CCOCC1 (some centres unmarked) [Compound 84],0.02 to 2 mM,–,< 1000 µM
N=S(=O)(CCCC(F)(F)F)CC[C@H](N)C(=O)OCc1ccccc1 (some centres unmarked) [Compound 86],0.02 to 2 mM,–,< 1000 µM
CCCCOC(=O)[C@@H](N)CCS(=N)(=O)CCC(C)(C)c1ccccc1 (some centres unmarked) [Compound 87],0.02 to 2 mM,–,< 1000 µM

# The next lines start with results.
IC50 ([1]; read-out: GCL IC50),"IC50 ([1]; read-out: GCL IC50 (mM), individual values in parentheses)",Structure (SMILES),EC50 [2]
≤ 0.02 mM,–,N=S(=O)(CCc1cccc(F)c1)CC[C@H](N)C(=O)O (some centres unmarked) [Compound 24],≥ 1000 µM
0.02 to 2 mM,–,N=S(=O)(CCc1cccc(Cl)c1Cl)CC[C@H](N)C(=O)O (some centres unmarked) [Compound 25],≥ 1000 µM
≤ 0.02 mM,–,Cc1c(F)cccc1CCS(=N)(=O)CC[C@H](N)C(=O)O (some centres unmarked) [Compound 26],< 1000 µM
0.02 to 2 mM,–,Cc1cccc(CCS(=N)(=O)CC[C@H](N)C(=O)O)c1C (some centres unmarked) [Compound 27],≥ 1000 µM
≤ 0.02 mM,–,N#Cc1ccccc1CCS(=N)(=O)CC[C@H](N)C(=O)O (some centres unmarked) [Compound 30],≥ 1000 µM
≤ 0.02 mM,–,N=S(=O)(CCc1cccc2ccccc12)CC[C@H](N)C(=O)O (some centres unmarked) [Compound 31],≥ 1000 µM
0.02 to 2 mM,–,Cc1cccc(C)c1CCS(=N)(=O)CC[C@H](N)C(=O)O (some centres unmarked) [Compound 32],≥ 1000 µM
≤ 0.02 mM,–,CCc1ccccc1CCS(=N)(=O)CC[C@H](N)C(=O)O (some centres unmarked) [Compound 33],≥ 1000 µM
0.02 to 2 mM,–,N=S(=O)(CCc1ccccc1C1CC1)CC[C@H](N)C(=O)O (some centres unmarked) [Compound 34],≥ 1000 µM
0.02 to 2 mM,–,Cc1noc(C)c1CCS(=N)(=O)CC[C@H](N)C(=O)O (some centres unmarked) [Compound 35],≥ 1000 µM
≤ 0.02 mM,–,N=S(=O)(CCc1ccc(C(F)(F)F)cc1C(F)(F)F)CC[C@H](N)C(=O)O (some centres unmarked) [Compound 36],< 1000 µM
≤ 0.02 mM,–,Cc1ccc(CCS(=N)(=O)CC[C@H](N)C(=O)O)c(F)c1 (some centres unmarked) [Compound 37],≥ 1000 µM
0.02 to 2 mM,–,CC(CS(=N)(=O)CC[C@H](N)C(=O)O)c1ccccc1Cl (some centres unmarked) [Compound 38],≥ 1000 µM
≤ 0.02 mM,–,Cc1ccc(Cl)c(CCS(=N)(=O)CC[C@H](N)C(=O)O)c1 (some centres unmarked) [Compound 39],≥ 1000 µM
0.02 to 2 mM,–,Cc1ccc(C(=O)O)cc1CCS(=N)(=O)CC[C@H](N)C(=O)O (some centres unmarked) [Compound 41],≥ 1000 µM
0.02 to 2 mM,–,Cc1cccc(Cl)c1CCS(=N)(=O)CC[C@H](N)C(=O)O (some centres unmarked) [Compound 42],≥ 1000 µM
≤ 0.02 mM,–,Cc1ccc(CCS(=N)(=O)CC[C@H](N)C(=O)O)c(Cl)c1 (some centres unmarked) [Compound 43],≥ 1000 µM
≤ 0.02 mM,–,Cc1ccc(C(F)(F)F)c(CCS(=N)(=O)CC[C@H](N)C(=O)O)c1 (some centres unmarked) [Compound 44],≥ 1000 µM
≤ 0.02 mM,–,Cc1ccc(-c2nn[nH]n2)cc1CCS(=N)(=O)CC[C@H](N)C(=O)O (some centres unmarked) [Compound 45],≥ 1000 µM
≤ 0.02 mM,–,N=S(=O)(CCc1cccs1)CC[C@H](N)C(=O)O (some centres unmarked) [Compound 48],≥ 1000 µM
≤ 0.02 mM,–,CC(C)(CCS(=N)(=O)CC[C@H](N)C(=O)O)c1ccccc1F (some centres unmarked) [Compound 59],< 1000 µM
≤ 0.02 mM,–,N=[S@](=O)(CC[C@H](c1ccccc1)C(F)(F)F)CC[C@H](N)C(=O)O [Compound 60],< 1000 µM
≤ 0.02 mM,–,N=[S@@](=O)(CC[C@H](N)C(=O)O)CC[C@@H](c1ccccc1)C(F)(F)F [Compound 61],< 1000 µM
≤ 0.02 mM,–,N=S(=O)(CC[C@H](N)C(=O)O)CCC1(c2ccccc2)CCC1 (some centres unmarked) [Compound 62],< 1000 µM
≤ 0.02 mM,–,N=S(=O)(CCC(c1c[nH]c2ccccc12)C(F)(F)F)CC[C@H](N)C(=O)O (some centres unmarked) [Compound 64],< 1000 µM
≤ 0.02 mM,–,CC(C)(CCS(=N)(=O)CC[C@H](N)C(=O)O)Cc1ccccc1 (some centres unmarked) [Compound 65],≥ 1000 µM
